Blank lines part the entries; values can stand above or below the compound they belong to.
What was measured:
Arginase-1 [1] = biological target: T1, Arginase-1 (Homo sapiens, UniProt P05089); experiment: Binding affinity to human recombinant ARG1 assessed as inhibition constant
T1 sequence (P05089 whole entry): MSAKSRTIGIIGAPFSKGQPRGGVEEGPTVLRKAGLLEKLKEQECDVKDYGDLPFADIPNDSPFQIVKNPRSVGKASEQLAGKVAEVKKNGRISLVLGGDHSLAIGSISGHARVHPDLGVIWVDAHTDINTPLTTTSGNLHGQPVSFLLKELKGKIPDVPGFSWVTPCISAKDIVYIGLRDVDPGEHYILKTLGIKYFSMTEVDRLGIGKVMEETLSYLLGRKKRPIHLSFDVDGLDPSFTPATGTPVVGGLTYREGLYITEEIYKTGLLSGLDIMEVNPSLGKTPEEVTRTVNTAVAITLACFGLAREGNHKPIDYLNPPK

Arginase-1 [2] = biological target: T1, Arginase-1; experiment: Inhibition of ARG1 (unknown origin)
Arginase-1 [3] = biological target: T1, Arginase-1; experiment: Inhibition of N-terminal hexa-histidine full-length human ARG1 extracted from Escherichia coli BL21 (DE3) Rosetta competent cells
[4] = biological target: T2, Arginase-2, mitochondrial (Homo sapiens, UniProt P78540); experiment: Inhibition of human recombinant ARG2
T2 sequence (P78540 whole entry): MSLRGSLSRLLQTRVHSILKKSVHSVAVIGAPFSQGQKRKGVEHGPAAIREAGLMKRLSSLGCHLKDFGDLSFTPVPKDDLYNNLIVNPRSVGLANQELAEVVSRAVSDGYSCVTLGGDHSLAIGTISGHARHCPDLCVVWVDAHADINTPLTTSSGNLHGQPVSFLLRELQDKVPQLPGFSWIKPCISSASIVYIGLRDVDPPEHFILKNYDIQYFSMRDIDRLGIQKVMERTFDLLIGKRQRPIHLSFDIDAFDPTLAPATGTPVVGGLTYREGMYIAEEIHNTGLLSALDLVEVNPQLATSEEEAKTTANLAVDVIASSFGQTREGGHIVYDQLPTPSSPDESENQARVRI

[5] = biological target: T2, Arginase-2, mitochondrial; experiment: Inhibition of human recombinant ARG2 extracted from Escherichia coli
[6] = biological target: T2, Arginase-2, mitochondrial; experiment: Inhibition of ARG2 (unknown origin)

IC50 (Arginase-1 [2]): 6.9 nM
SMILES: CN[C@@H]1C[C@@H]2C[C@@](N)(C(=O)O)[C@@H](CCCB(O)O)[C@@H]2[C@H]1F

IC50 (Arginase-1 [3]): < 1 nM
SMILES: CC(C)(C)[C@H](N)C(=O)N[C@H]1CN[C@H](C(=O)O)[C@@H]1CCCB(O)O

IC50 [5]: 39 nM
SMILES: CN(C)C[C@@H]1CC[C@@H](CCB(O)O)C[C@]1(N)C(=O)O

The next lines start with the compound.

SMILES: N[C@@H](CCCCC=O)C(=O)O
Ki (Arginase-1 [1]): 60000 nM

SMILES: N[C@@H](CC/C=C/B(O)O)C(=O)O
IC50 [4]: 15000 nM

SMILES: O=C(O)[C@@]1(CCCCB(O)O)CCCN1
IC50 (Arginase-1 [2]): 14.7 nM
IC50 [6]: 23 nM

SMILES: N[C@@](CCCCB(O)O)(C(=O)O)C1CC(NCCCc2ccccc2)C1 (stereo partly drawn)
IC50 [6]: 26 nM

— ChEMBL document CHEMBL6087424, “Opportunities and Challenges of Arginase Inhibitors in Cancer: A Medicinal Chemistry Perspective” (J Med Chem, 2024)
